Reference: article PMC9090415, “Discovery of small molecule inhibitors of Plasmodium falciparum apicoplast DNA polymerase” (Journal of Enzyme Inhibition and Medicinal Chemistry, 2022)

Biological target: P. falciparum apicoplast DNA polymerase (Pf-apPOL) (Plasmodium falciparum, UniProt Q8ILY1)
Assay: Fluorescence-based high-throughput DNA polymerase assay (molecular beacon), primary screen and dose-response
Format: biochemical
Method: The HT assay employs a molecular beacon, a stem-loop DNA template with a Cy3 dye and the Black Hole Quencher on the 3′ and 5′ ends of the DNA, respectively. Pf-apPOL concentration is based on a calculated absorptivity of ε280 = 56750 M^−1 cm^−1. Reactions were carried out at 25 °C, using Corning 3575 […] (well-volume, 20 µL). Assays testing for compound inhibition composed of reaction buffer (pH 7.9 in 50 mM potassium acetate, 20 mM Tris-acetate and 10 mM magnesium acetate), Pf-apPOL (20 nM), DNA substrate (20 nM), dNTPs (6 µM), and compound (10 µM in DMSO). The DNA and nucleotide substrates (dNTPs) were at concentrations of 20 nM and 6 µM, respectively, in the assay. Pf-apPOL was incubated in the reaction buffer with dNTPs and the compound of interest (10 µM, in the assay) at 25 °C for 10 min. The DNA substrate was then added and the reaction was allowed to proceed for 90 min at 25 °C.
Each assay plate contained 16 negative controls (no Pf-apPOL, DMSO present) and 16 positive controls (Pf-apPOL present, no DMSO). The fluorescence of each well was determined using a BioTek Synergy Neo fluorescence plate reader using excitation and emission wavelengths of 555 and 570 nm, respectively.
In the above, Min is the average of fluorescence emission of the negative controls (substrate only), Max the average fluorescence emission from the positive controls (enzyme + substrate), and Test the emission from the assays in the presence of compounds (enzyme + compound + substrates). […] […] The IC50 of each compound was determined using Equation (2): (2) IC50= Vmax/(1+ (I/IC50)^n)
In the above, n measures cooperativity, with n > 1 indicating synergistic binding of more than a single molecule of the compound.
To identify apPOL inhibitors we utilised our previously developed high-throughput DNA polymerase assay. The HT assay is based on a molecular beacon DNA template that forms a stem-loop with a Cy3 dye and the Black Hole Quencher on the 3′ and 5′ ends of the DNA, respectively. DNA polymerase activity extends an annealed primer through the stem region, displacing the fluorophore from the quencher, thereby increasing its fluorescence (Figure 1(A)). The assay accurately recapitulates the kinetic behaviour of apPOL, as measured through more conventional low-throughput gel-based assays. The Z′ factor for the assay described here was 0.9 across all plates (data not shown).
Figure 1. High-throughput screening. (A) The fluorescent-based DNA polymerase assay used to screen the compound libraries. The DNA template strand is a hairpin loop with a primer annealed to the loop. The 3’ end of the primer is 11 bases away from the 6 bp duplex. Strand displacement activity of the DNA polymerase separates the Cy3 dye from the Black hole quencher leading to an increase in fluorescent signal. (B) The high-throughput assay workflow. The DNA polymerase is incubated with […] compound for 10 min prior to addition of the hairpin substrate. The reaction is quenched at 3 different time points and the fluorescent signal is measured and % inhibition is determined using the provided equation.

Sequence of P. falciparum apicoplast DNA polymerase (Pf-apPOL) (Q8ILY1 entry or part of it): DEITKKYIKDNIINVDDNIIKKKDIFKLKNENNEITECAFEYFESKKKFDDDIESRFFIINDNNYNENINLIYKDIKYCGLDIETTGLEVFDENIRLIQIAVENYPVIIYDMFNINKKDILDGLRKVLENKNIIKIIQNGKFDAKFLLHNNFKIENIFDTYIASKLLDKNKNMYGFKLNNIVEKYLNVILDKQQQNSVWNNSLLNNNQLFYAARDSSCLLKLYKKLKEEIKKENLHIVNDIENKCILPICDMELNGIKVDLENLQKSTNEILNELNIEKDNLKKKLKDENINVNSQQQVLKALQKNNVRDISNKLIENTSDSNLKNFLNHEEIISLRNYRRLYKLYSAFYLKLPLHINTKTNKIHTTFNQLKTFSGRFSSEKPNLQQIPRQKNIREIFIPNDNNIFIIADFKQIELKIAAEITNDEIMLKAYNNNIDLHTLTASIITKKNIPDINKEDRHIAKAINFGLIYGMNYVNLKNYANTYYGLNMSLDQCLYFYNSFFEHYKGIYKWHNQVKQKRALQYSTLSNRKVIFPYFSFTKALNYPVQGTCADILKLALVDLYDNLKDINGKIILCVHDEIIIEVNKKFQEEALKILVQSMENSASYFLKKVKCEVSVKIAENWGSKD

SMILES: O=C(Nc1nnc(-c2ccno2)o1)c1ccc2c(c1)OCO2 [KU0171343]
- DNA Pol (186 hits, value of the hit list (primary screen); unit not given; 90 min, 10 µM): 40
- % inhibition Apo pol 10' (DRC-1; 10'; concentration 2.5): 0.3504%
- % inhibition Apo pol 10' (DRC-1; 10'; concentration 5): 4.323%
- % inhibition Apo pol 10' (DRC-1; 10'; concentration 10): 19.3402%
- % inhibition Apo pol 10' (DRC-1; 10'; concentration 20): 32.3938%
- % inhibition Apo pol 10' (DRC-1; 10'; concentration 40): 61.4938%
- % inhibition Apo pol 10' (DRC-1; 10'; concentration 80): 79.918%
- % inhibition Apol 90' (DRC-1; 90'; concentration 2.5): -7.247%
- % inhibition Apol 90' (DRC-1; 90'; concentration 5): -7.662%
- % inhibition Apol 90' (DRC-1; 90'; concentration 10): 0.8301%
- % inhibition Apol 90' (DRC-1; 90'; concentration 20): 8.774%
- % inhibition Apol 90' (DRC-1; 90'; concentration 40): 33.5392%
- % inhibition Apol 90' (DRC-1; 90'; concentration 80): 60.7945%
- % inhibition apPOL 180' (DRC-1; 180'; concentration 2.5): -15.466%
- % inhibition apPOL 180' (DRC-1; 180'; concentration 5): -16.6627%
- % inhibition apPOL 180' (DRC-1; 180'; concentration 10): -10.0119%
- % inhibition apPOL 180' (DRC-1; 180'; concentration 20): -7.297%
- % inhibition apPOL 180' (DRC-1; 180'; concentration 40): 11.9639%
- % inhibition apPOL 180' (DRC-1; 180'; concentration 80): 37.6873%
- % inhibition Apo pol 5' (DRC-2, 5', concentration 2.5): 4.65%
- % inhibition Apo pol 5' (DRC-2, 5', concentration 5): 2.76%
- % inhibition Apo pol 5' (DRC-2, 5', concentration 10): 18%
- % inhibition Apo pol 5' (DRC-2, 5', concentration 20): 19%
- % inhibition Apo pol 5' (DRC-2, 5', concentration 40): 33%
- % inhibition Apo pol 5' (DRC-2, 5', concentration 80): 26%
- % inhibition Apol 40' (DRC-2, 40', concentration 2.5): -1.21%
- % inhibition Apol 40' (DRC-2, 40', concentration 5): -4.25%
- % inhibition Apol 40' (DRC-2, 40', concentration 10): 14%
- % inhibition Apol 40' (DRC-2, 40', concentration 20): 14%
- % inhibition Apol 40' (DRC-2, 40', concentration 40): 39%
- % inhibition Apol 40' (DRC-2, 40', concentration 80): 51%
- % inhibition ApPOL 90' (DRC-2, 90', concentration 2.5): -3.2%
- % inhibition ApPOL 90' (DRC-2, 90', concentration 5): -8%
- % inhibition ApPOL 90' (DRC-2, 90', concentration 10): 11%
- % inhibition ApPOL 90' (DRC-2, 90', concentration 20): 10%
- % inhibition ApPOL 90' (DRC-2, 90', concentration 40): 36%
- % inhibition ApPOL 90' (DRC-2, 90', concentration 80): 55%
- % inhibition apPOL 180' (DRC-2, 180', concentration 2.5): -8%
- % inhibition apPOL 180' (DRC-2, 180', concentration 5): -14%
- % inhibition apPOL 180' (DRC-2, 180', concentration 10): 1.55%
- % inhibition apPOL 180' (DRC-2, 180', concentration 20): 0.368%
- % inhibition apPOL 180' (DRC-2, 180', concentration 40): 25%
- % inhibition apPOL 180' (DRC-2, 180', concentration 80): 51%
- % inhibition Apol 40' (DRC-2; 40'; concentration 10): 14%
- % inhibition Apol 40' (DRC-2; 40'; concentration 20): 14%
- % inhibition Apol 40' (DRC-2; 40'; concentration 80): 51%
- % inhibition ApPOL 90' (DRC-2; 90'; concentration 5): -8%
- % inhibition apPOL 180' (DRC-2; 180'; concentration 2.5): -8%
- % inhibition apPOL 180' (DRC-2; 180'; concentration 80): 51%
- DNA Pol (primary screen value, 'DNA Pol' only; 90 min, 10 µM): 40

SMILES: CCc1ccccc1NC(=O)c1ccc(-c2ncccc2NC(C)=O)cc1 [KU0203112]
- % inhibition Apo pol 10' (DRC-1; concentration 2.5; 10'): 16.2237%
- % inhibition Apol 90' (DRC-1; concentration 2.5; 90'): 2.255%
- % inhibition apPOL 180' (DRC-1; concentration 2.5; 180'): -4.969%
- % inhibition Apo pol 10' (DRC-1; concentration 5; 10'): 20.5956%
- % inhibition Apol 90' (DRC-1; concentration 5; 90'): 6.528%
- % inhibition apPOL 180' (DRC-1; concentration 5; 180'): -1.7806%
- % inhibition Apo pol 10' (DRC-1; concentration 10; 10'): 40.7013%
- % inhibition Apol 90' (DRC-1; concentration 10; 90'): 22.2992%
- % inhibition apPOL 180' (DRC-1; concentration 10; 180'): 9.63%
- % inhibition Apo pol 10' (DRC-1; concentration 20; 10'): 66.0159%
- % inhibition Apol 90' (DRC-1; concentration 20; 90'): 44.8534%
- % inhibition apPOL 180' (DRC-1; concentration 20; 180'): 25.9288%
- % inhibition Apo pol 10' (DRC-1; concentration 40; 10'): 83.2179%
- % inhibition Apol 90' (DRC-1; concentration 40; 90'): 72.954%
- % inhibition apPOL 180' (DRC-1; concentration 40; 180'): 58.4495%
- % inhibition Apo pol 10' (DRC-1; concentration 80 (unit not given); 10'): 89.6121%
- % inhibition Apol 90' (DRC-1; concentration 80; 90'): 90.3611%
- % inhibition apPOL 180' (DRC-1; concentration 80; 180'): 89.009%
- % inhibition ApPOL 90' (DRC-2; 90'; concentration 40): 70%
- % inhibition apPOL 180' (DRC-2; 180'; concentration 40): 70%
- % inhibition Apo pol 5' (DRC-2; concentration 2.5; 5'): 0.547%
- % inhibition Apol 40' (DRC-2; concentration 2.5; 40'): 0.556%
- % inhibition ApPOL 90' (DRC-2; concentration 2.5; 90'): -1.65%
- % inhibition apPOL 180' (DRC-2; concentration 2.5; 180'): -5.44%
- % inhibition Apo pol 5' (DRC-2; concentration 5; 5'): 5.51%
- % inhibition Apol 40' (DRC-2; concentration 5; 40'): 7%
- % inhibition ApPOL 90' (DRC-2; concentration 5; 90'): 5.44%
- % inhibition apPOL 180' (DRC-2; concentration 5; 180'): -1.68%
- % inhibition Apo pol 5' (DRC-2; concentration 10; 5'): 27%
- % inhibition Apol 40' (DRC-2; concentration 10; 40'): 28%
- % inhibition ApPOL 90' (DRC-2; concentration 10; 90'): 25%
- % inhibition apPOL 180' (DRC-2; concentration 10; 180'): 14%
- % inhibition Apo pol 5' (DRC-2; concentration 20; 5'): 43%
- % inhibition Apol 40' (DRC-2; concentration 20; 40'): 54%
- % inhibition ApPOL 90' (DRC-2; concentration 20; 90'): 52%
- % inhibition apPOL 180' (DRC-2; concentration 20; 180'): 41%
- % inhibition Apo pol 5' (DRC-2; concentration 40; 5'): 50%
- % inhibition Apol 40' (DRC-2; concentration 40; 40'): 68%
- % inhibition ApPOL 90' (DRC-2; concentration 40; 90'): 70%
- % inhibition apPOL 180' (DRC-2; concentration 40; 180'): 70%
- % inhibition Apo pol 5' (DRC-2; concentration 80; 5'): 47%
- % inhibition Apol 40' (DRC-2; concentration 80; 40'): 69%
- % inhibition ApPOL 90' (DRC-2; concentration 80; 90'): 74%
- % inhibition apPOL 180' (DRC-2; concentration 80; 180'): 77%
- DNA Pol (primary screen value of the 186 hits; unit not given; 90 min, 10 µM): 26
- DNA Pol (primary screen value; head prints only 'DNA Pol'; 90 min, 10 µM): 26
